# Source: PMC3177990 (Biochemistry, 2011)
# Biological target: human secretin receptor (Homo sapiens, UniProt P47872)
# Experiment: cAMP responses in CHO-SecR cells
# Type: cell-based
# Conditions: Figure 4, responses not significantly different from 1
# Chain of human secretin receptor (P47872 23-440): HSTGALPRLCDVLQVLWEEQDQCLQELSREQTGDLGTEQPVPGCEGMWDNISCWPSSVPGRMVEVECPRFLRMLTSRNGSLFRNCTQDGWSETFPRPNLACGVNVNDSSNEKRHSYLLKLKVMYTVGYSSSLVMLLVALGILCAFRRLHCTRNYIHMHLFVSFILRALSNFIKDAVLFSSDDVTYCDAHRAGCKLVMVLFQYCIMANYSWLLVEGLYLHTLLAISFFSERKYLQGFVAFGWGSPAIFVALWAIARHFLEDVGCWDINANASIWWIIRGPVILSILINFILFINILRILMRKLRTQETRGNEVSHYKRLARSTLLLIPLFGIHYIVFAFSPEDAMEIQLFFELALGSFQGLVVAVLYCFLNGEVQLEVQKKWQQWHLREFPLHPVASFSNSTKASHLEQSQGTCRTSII
row,Substance,"agonist character, cAMP responses compared with [Y^10]sec(1-27) (1)"
1,"cyclic [Glu^16,Lys^20]human secretin(1-27) [compound 15]",full agonists
2,"cyclic [Glu^16,Lys^20][Tyr^10]human secretin(1-27) [compound 14]",full agonists
